Results reported in patent publication US4024224A, “14-Aminodaunomycins, their preparation and use” (priority 1974, dated 1977).
Converted amounts (≈) assume the structure as drawn. Read-outs that look alike come from different tables or passages of the source.

What was measured:
ascites Sarcoma 180 = test: Antitumor activity and toxicity on ascites Sarcoma 180 in CD 1 mice; format: in vivo; conditions: for % LTS: 60 days; for LTS (Long Term Survivors after 60 days): survivors/total; for Toxic Deaths: deaths/total
Description: (§1) The antitumor activity of the compounds of the invention was tested on ascites Sarcoma 180.
(§2) Three month old CD 1 mice were used. Sarcoma 180 ascites cells were inoculated intraperitoneally (10^6 cells/mouse). For use in these tests, the compounds were dissolved in distilled water or in 5% ethyl alcohol in distilled water, then diluted with Ringers solution and administered i.p. 1 day after the tumor implant (10 ml./kg. of body weight).
(§3) The toxicity of the test compounds was evaluated by macroscopic autoptic examination mainly in terms of reduction in spleen size. The comparison of the effectiveness of the test compounds is based on the maximum increase in median survival time, as compared to untreated controls, over the dose range used. The number of Long Term Survivors (LTS) refers to tumor-free mice at the end of the experiment (60 days). Solid Sarcoma 180 was implanted subcutaneously by trocar in the flank of CD 1 mice according to standard methods. The mice were treated i.v. for 5 consecutive days, starting 1 day after the tumor implant. On the 11th day the tumor volume was measured by means of a caliper and evaluated according to the formula (a^2 × b)/2, a and b being the minimum and the maximum diameters respectively.

[1] = as above; format: in vivo; conditions: mouse, in vivo, ip, read-out: % Toxic Deaths
Description: as §1, §2, §3

[2] = Proliferation of uninfected mouse embryo fibroblasts (MEF); format: cell-based; conditions: mouse, mouse embryo fibroblasts; calculated on dose-effects lines; uninfected MEF, 3 days treatment; read-out: MEF proliferation ID 50 (Inhibiting Dose 50%)
Description: (§4) Mouse embryo fibroblasts (MEF) were plated on 35 mm. Falcon plastic dishes and infected 24 hours later with Moloney Sarcoma Virus (MSV) in the presence of DEAE-dextran (25 μg./ml.). The samples were then treated for 3 days with different concentrations of the compounds of the invention. The number of foci of transformed cells was microscopically determined 5 days after the infection. Uninfected MEF were similarly treated and at the end of the experiment, the cells were counted in an haemocytometer. In all the experiments, the cells were incubated in a 5% CO2 incubator at 37° C.
(§5) For use in these tests the compounds were dissolved in distilled water or in 5% ethyl alcohol in distilled water and then diluted in culture medium.

Mouse Embryo Fibroblasts = test: as above; format: cell-based; conditions: Mus musculus, Fibroblast, 72 h, uninfected MEF, 3 days treatment, read-out: MEF No. of cells; for activity at 0.0062 µg/mL: dose 0.0062 μg/ml; for activity at 0.025 µg/mL: dose 0.0250 μg/ml; for activity at 0.1 µg/mL: dose 0.1 μg/ml; for activity at 0.4 µg/mL: dose 0.4 μg/ml
Description: as §4, §5

[3] = test system: Moloney Sarcoma Virus (MSV); test: Inhibition of MSV-M foci formation in mouse embryo fibroblasts; format: cell-based; conditions: Fibroblast, 120 h, 3 days treatment; for IC50: calculated on dose-effects lines, read-out: MSV-M foci ID 50 (Inhibiting Dose 50%); for activity at 0.0062 µg/mL: dose 0.0062 μg/ml; for activity at 0.0062 µg/mL / activity at 0.025 µg/mL / activity at 0.1 µg/mL / activity at 0.4 µg/mL: foci counted 5 days after infection, read-out: MSV-M No. of foci; for activity at 0.025 µg/mL: dose 0.0250 μg/ml; for activity at 0.1 µg/mL: dose 0.1 μg/ml; for activity at 0.4 µg/mL: dose 0.4 μg/ml
Description: as §4, §5
The results of these tests are reported in Table I in terms of ID50 values (Inhibiting Dose 50%), calculated on dose-effects lines.

[4] = 0.2 mg./kg. i.p. 1 day after tumor implant
[5] = 1 mg./kg. i.p. 1 day after tumor implant
[6] = 5 mg./kg. i.p. 1 day after tumor implant
[7] = 12.5 mg./kg. i.p. 1 day after tumor implant
[8] = 25 mg./kg. i.p. 1 day after tumor implant
[9] = 50 mg./kg. i.p. 1 day after tumor implant

## COc1cccc2c1C(=O)c1c(O)c3c(c(O)c1C2=O)C[C@@](O)(C(=O)CN1CCCCC1)C[C@@H]3O[C@H]1C[C@H](N)[C@H](O)[C@H](C)O1 [14-(N-piperidino)-daunomycin]
Ascites Sarcoma 180; [4]
  T/C (median survival time, % over untreated controls): 103%
  % LTS: 0%
  LTS (Long Term Survivors after 60 days): 0/10
Ascites Sarcoma 180; 0.2 mg./kg. i.p.
  Toxic Deaths: 0/10
Ascites Sarcoma 180; [5]
  T/C (median survival time, % over untreated controls): 100%
  % LTS: 0%
  LTS (Long Term Survivors after 60 days): 0/10
Ascites Sarcoma 180; 1 mg./kg. i.p.
  Toxic Deaths: 0/10
Ascites Sarcoma 180; [6]
  T/C (median survival time, % over untreated controls): 140%
  % LTS: 20%
  LTS (Long Term Survivors after 60 days): 2/10
Ascites Sarcoma 180; 5 mg./kg. i.p.
  Toxic Deaths: 0/10
Ascites Sarcoma 180; [7]
  T/C (median survival time, % over untreated controls): 200%
  % LTS: 20%
  LTS (Long Term Survivors after 60 days): 2/10
Ascites Sarcoma 180; 12.5 mg./kg. i.p.
  Toxic Deaths: 0/10
Ascites Sarcoma 180; [8]
  T/C (median survival time, % over untreated controls): 218%
  % LTS: 20%
  LTS (Long Term Survivors after 60 days): 2/10
Ascites Sarcoma 180; 25 mg./kg. i.p.
  Toxic Deaths: 0/10
Ascites Sarcoma 180; [9]
  T/C (median survival time, % over untreated controls): 144%
  % LTS: 20%
  LTS (Long Term Survivors after 60 days): 2/10
Ascites Sarcoma 180; 50 mg./kg. i.p.
  Toxic Deaths: 4/10
[1]; 0.2 mg./kg. i.p.
  mortality: 0%
[1]; 1 mg./kg. i.p.
  mortality: 0%
[1]; 5 mg./kg. i.p.
  mortality: 0%
[1]; 12.5 mg./kg. i.p.
  mortality: 0%
[1]; 25 mg./kg. i.p.
  mortality: 0%
[1]; 50 mg./kg. i.p.
  mortality: 40%
[2]
  IC50 at 72 h: 0.1 µg/mL (≈ 0.164 µM)
Mouse Embryo Fibroblasts
  activity at 0.0062 µg/mL: 87%
  activity at 0.025 µg/mL: 71%
  activity at 0.1 µg/mL: 58%
  activity at 0.4 µg/mL: 24%
[3]
  IC50: 0.08 µg/mL (≈ 0.131 µM)
  activity at 0.0062 µg/mL: 100%
  activity at 0.025 µg/mL: 89%
  activity at 0.1 µg/mL: 42%
  activity at 0.4 µg/mL: 0%

## COc1cccc2c1C(=O)c1c(O)c3c(c(O)c1C2=O)C[C@@](O)(C(=O)CN1CCN(CCO)CC1)C[C@@H]3O[C@H]1C[C@H](N)[C@H](O)[C@H](C)O1 [14-[N-(N'-hydroxyethyl)piperazino]-daunomycin]
Ascites Sarcoma 180; [4]
  T/C (median survival time, % over untreated controls): 103%
  % LTS: 0%
  LTS (Long Term Survivors after 60 days): 0/10
Ascites Sarcoma 180; 0.2 mg./kg. i.p.
  Toxic Deaths: 0/10
Ascites Sarcoma 180; [5]
  T/C (median survival time, % over untreated controls): 103%
  % LTS: 0%
  LTS (Long Term Survivors after 60 days): 0/10
Ascites Sarcoma 180; 1 mg./kg. i.p.
  Toxic Deaths: 0/10
Ascites Sarcoma 180; [6]
  T/C (median survival time, % over untreated controls): 103%
  % LTS: 10%
  LTS (Long Term Survivors after 60 days): 1/10
Ascites Sarcoma 180; 5 mg./kg. i.p.
  Toxic Deaths: 0/10
Ascites Sarcoma 180; [7]
  T/C (median survival time, % over untreated controls): 152%
  % LTS: 0%
  LTS (Long Term Survivors after 60 days): 0/10
Ascites Sarcoma 180; 12.5 mg./kg. i.p.
  Toxic Deaths: 0/10
Ascites Sarcoma 180; [8]
  T/C (median survival time, % over untreated controls): 222%
  % LTS: 10%
  LTS (Long Term Survivors after 60 days): 1/10
Ascites Sarcoma 180; 25 mg./kg. i.p.
  Toxic Deaths: 0/10
Ascites Sarcoma 180; [9]
  T/C (median survival time, % over untreated controls): 152%
  % LTS: 0%
  LTS (Long Term Survivors after 60 days): 0/10
Ascites Sarcoma 180; 50 mg./kg. i.p.
  Toxic Deaths: 3/10
[1]; 0.2 mg./kg. i.p.
  mortality: 0%
[1]; 1 mg./kg. i.p.
  mortality: 0%
[1]; 5 mg./kg. i.p.
  mortality: 0%
[1]; 12.5 mg./kg. i.p.
  mortality: 0%
[1]; 25 mg./kg. i.p.
  mortality: 0%
[1]; 50 mg./kg. i.p.
  mortality: 30%
[2]
  IC50 at 72 h: 0.08 µg/mL (≈ 0.122 µM)
Mouse Embryo Fibroblasts
  activity at 0.0062 µg/mL: 67%
  activity at 0.025 µg/mL: 64%
  activity at 0.1 µg/mL: 52%
  activity at 0.4 µg/mL: 31%
[3]
  IC50: 0.045 µg/mL (≈ 0.0686 µM)
  activity at 0.0062 µg/mL: 71%
  activity at 0.025 µg/mL: 64%
  activity at 0.1 µg/mL: 43%
  activity at 0.4 µg/mL: 2%

## COc1cccc2c1C(=O)c1c(O)c3c(c(O)c1C2=O)C[C@@](O)(C(=O)CN1CCN(C)CC1)C[C@@H]3O[C@H]1C[C@H](N)[C@H](O)[C@H](C)O1 [14-[N-(N'-methyl)-piperazino]-daunomycin]
Ascites Sarcoma 180; [4]
  T/C (median survival time, % over untreated controls): 119%
  % LTS: 0%
  LTS (Long Term Survivors after 60 days): 0/10
Ascites Sarcoma 180; 0.2 mg./kg. i.p.
  Toxic Deaths: 0/10
Ascites Sarcoma 180; [5]
  T/C (median survival time, % over untreated controls): 103%
  % LTS: 0%
  LTS (Long Term Survivors after 60 days): 0/10
Ascites Sarcoma 180; 1 mg./kg. i.p.
  Toxic Deaths: 0/10
Ascites Sarcoma 180; [6]
  T/C (median survival time, % over untreated controls): 116%
  % LTS: 0%
  LTS (Long Term Survivors after 60 days): 0/10
Ascites Sarcoma 180; 5 mg./kg. i.p.
  Toxic Deaths: 0/10
Ascites Sarcoma 180; [7]
  T/C (median survival time, % over untreated controls): 167%
  % LTS: 30%
  LTS (Long Term Survivors after 60 days): 3/10
Ascites Sarcoma 180; 12.5 mg./kg. i.p.
  Toxic Deaths: 1/10
Ascites Sarcoma 180; [8]
  T/C (median survival time, % over untreated controls): 226%
  % LTS: 30%
  LTS (Long Term Survivors after 60 days): 3/10
Ascites Sarcoma 180; 25 mg./kg. i.p.
  Toxic Deaths: 0/10
Ascites Sarcoma 180; [9]
  T/C (median survival time, % over untreated controls): 130%
  % LTS: 10%
  LTS (Long Term Survivors after 60 days): 1/10
Ascites Sarcoma 180; 50 mg./kg. i.p.
  Toxic Deaths: 5/10
[1]; 0.2 mg./kg. i.p.
  mortality: 0%
[1]; 1 mg./kg. i.p.
  mortality: 0%
[1]; 5 mg./kg. i.p.
  mortality: 0%
[1]; 12.5 mg./kg. i.p.
  mortality: 10%
[1]; 25 mg./kg. i.p.
  mortality: 0%
[1]; 50 mg./kg. i.p.
  mortality: 50%
[2]
  IC50 at 72 h: 0.09 µg/mL (≈ 0.144 µM)
Mouse Embryo Fibroblasts
  activity at 0.0062 µg/mL: 67%
  activity at 0.025 µg/mL: 64%
  activity at 0.1 µg/mL: 56%
  activity at 0.4 µg/mL: 23%
[3]
  IC50: 0.011 µg/mL (≈ 0.0176 µM)
  activity at 0.0062 µg/mL: 60%
  activity at 0.025 µg/mL: 35%
  activity at 0.1 µg/mL: 19%
  activity at 0.4 µg/mL: 0%
